Experimental data published in article PMC3944805, “Reinterpreting the Mechanism of Inhibition of Mycobacterium tuberculosisD-Alanine:D-Alanine Ligase by D-Cycloserine” (Biochemistry, 2013).
Like-named read-outs stand apart in the source and are kept apart here.

Tests used:
C[C@@H](N)C(=O)O = experiment: purified protein, by the assay type; conditions: other: EcDdlB; pH 7.3; 37.0 °C
Protocol: (§3) Time courses for the measurement of slow-onset inhibition were collected on an SX20 stopped-flow spectrometer (Applied Photophysics) at 37 °C, using a 10 mm path-length cell. Data points were recorded every 0.1 s. Catalysis was detected by the same coupled enzyme mechanism as used previously for steady-state kinetic measurements.[4] All reaction mixtures contained 50 mM HEPES (pH 7.3), 10 mM MgCl2, 80 mM KCl, 3 mM ATP, 0.25 mM NADH, 1.5 mM PEP, and a 40 μL/mL pyruvate kinase/lactate dehydrogenase enzyme solution (PK-LDH; stock solution of 600–1000 units/mL PK and 900–1400 units/mL LDH). MtDdl was employed at concentrations from 60 to 290 nM and EcDdl at a final concentration of 30 nM. DCS and D-Ala concentrations were varied as required. Reaction components were sorted into two syringes, with rapid mixing of 60 μL from each starting each reaction. For all assays, both syringes contained HEPES, MgCl2, KCl, NADH, PEP, and PK-LDH. MtDdl and D-Ala were always stored in separate syringes. For analysis of slow-onset inhibition at the C-terminal D-Ala binding site (i.e., data for Figure 1), DCS and Mt/EcDdl were stored in separate reaction mixtures prior to the commencement of the reaction. […]

[1] = molecular target: T1, Escherichia coli DdlB (EcDdl) (Escherichia coli, UniProt P07862); parameters: hexahistidine tag (from pET28a+) (N); made in house; host or cells: E. coli BL21; method as in Zawadzke et al., 1991; conditions: EcDdlB, previously published value in parentheses, ref Zawadzke et al., 1991, cited from earlier work
[2] = molecular target: T1, Escherichia coli DdlB (EcDdl); experiment: Steady-state kinetics of EcDdl
Protocol: as §3

[3] = molecular target: T2, Mycobacterium tuberculosis Ddl (MtDdl) (Mycobacterium tuberculosis, UniProt P9WP31); conditions: cited from earlier work
T2 construct: hexahistidine tag; made in house

[4] = molecular target: T2, Mycobacterium tuberculosis Ddl (MtDdl); experiment: Slow-onset inhibition of MtDdl by stopped-flow coupled enzyme time courses; type: biochemical; conditions: for koff: read-out: k–2 (DCS dissociation rate constant)
Protocol: (§1) Steady-state kinetics and equilibrium binding were performed as previously described.[4] Time courses for the measurement of slow-onset inhibition were collected on an SX20 stopped-flow spectrometer (Applied Photophysics) at 37 °C, using a 10 mm path-length cell. Data points were recorded every 0.1 s. Catalysis was detected by the same coupled enzyme mechanism as used previously for steady-state kinetic measurements.[4] All reaction mixtures contained 50 mM HEPES (pH 7.3), 10 mM MgCl2, 80 mM KCl, 3 mM ATP, 0.25 mM NADH, 1.5 mM PEP, and a 40 μL/mL pyruvate kinase/lactate dehydrogenase enzyme solution (PK-LDH; stock solution of 600–1000 units/mL PK and 900–1400 units/mL LDH). MtDdl was employed at concentrations from 60 to 290 nM and EcDdl at a final concentration of 30 nM. DCS and D-Ala concentrations were varied as required. Reaction components were sorted into two syringes, with rapid mixing of 60 μL from each starting each reaction. For all assays, both syringes contained HEPES, MgCl2, KCl, NADH, PEP, and PK-LDH. MtDdl and D-Ala were always stored in separate syringes. For analysis of slow-onset inhibition at the C-terminal D-Ala binding site (i.e., data for Figure 1), DCS and Mt/EcDdl were stored in separate reaction mixtures prior to the commencement of the reaction. For analysis of slow-onset inhibition at the N-terminal D-Ala site (i.e., data for Figure 2), MtDdl and DCS (with or without ATP) were stored in the same reaction mixture (for at least 4 min) prior to the commencement of the reaction.
(§2) Individual time course data were fit using eq 1 [drawing 1] 1 where [P]t is the product formed at time t, [E] is the total MtDdl concentration, vi is the initial rate, vf is the final (steady-state) rate, and kobs is the apparent rate constant for approach to the steady state.[7] Time courses were performed in triplicate and kobs values averaged for each DCS and D-Ala concentration tested. Secondary replots of kobs versus DCS concentration were fit using eq 2 [drawing 2] 2 where [I] is the DCS concentration, [S] is the D-Ala concentration, and k2 and k–2 are rate constants as described in Scheme 2. The Km value was that for the C-terminal site (4 mM), as previously reported.[4]

MtDdl = experiment: Theoretical calculation of dissociative t1/2 for MtDdl:ATP:D-Ala1:D-Ala2 complex; parameters: species or system Mycobacterium tuberculosis; conditions: theoretical calculations
Text: Supporting Information to:
Reinterpreting the mechanism of inhibition of Mycobacterium tuberculosis D-Alanine:D-Alanine ligase by D-Cycloserine.
Gareth Prosser and Luiz Pedro S. de Carvalho.
Division of Mycobacterial Research, MRC National Institute for Medical Research, The Ridgeway, […]
Table S1. Steady-state kinetic parameters for MtDdl and EcDdl. […]
aReaction conditions for both enzymes were as previously reported.1 bValues for MtDdl taken from our previous work.1 cValues in parentheses are previously published values.2
Theoretical calculation of dissociative t1/2 for MtDdl:ATP:D-Ala1:D-Ala2 complex […]
k = diffusion-rate limited = 1 × 1010 M-1.s-1
Figure S1. Comparison of dissociative half-lives (t1/2) of MtDdl:ATP:D-Ala:DCS and MtDdl:ATP:D-Ala-D-Ala complexes. Half-life for DCS-containing complex was measured experimentally as described in the main paper. Half-life for D-Ala-only-containing complex was calculated theoretically as described […]
(1 picture or pasted object on this page, not shown here)

[5] = molecular target: T1, Escherichia coli DdlB (EcDdl); experiment: Slow-onset inhibition of EcDdl by stopped-flow coupled enzyme time courses; type: biochemical; parameters: hexahistidine tag (from pET28a+) (N); made in house; host or cells: E. coli BL21
Protocol: as §1, §2

[6] = MtDdl preincubated with ATP with DCS, MtDdl–ATP complex, 40 mM D-Ala, 3 mM ATP
[7] = MtDdl preincubated with ATP, C-terminal D-Ala site, averaged over 0.4 to 40 mM D-Ala, 37 °C, pH 7.3
[8] = EcDdl preincubated with ATP, only 0.75 mM D-Ala tested

T2 sequence (P9WP31 whole entry): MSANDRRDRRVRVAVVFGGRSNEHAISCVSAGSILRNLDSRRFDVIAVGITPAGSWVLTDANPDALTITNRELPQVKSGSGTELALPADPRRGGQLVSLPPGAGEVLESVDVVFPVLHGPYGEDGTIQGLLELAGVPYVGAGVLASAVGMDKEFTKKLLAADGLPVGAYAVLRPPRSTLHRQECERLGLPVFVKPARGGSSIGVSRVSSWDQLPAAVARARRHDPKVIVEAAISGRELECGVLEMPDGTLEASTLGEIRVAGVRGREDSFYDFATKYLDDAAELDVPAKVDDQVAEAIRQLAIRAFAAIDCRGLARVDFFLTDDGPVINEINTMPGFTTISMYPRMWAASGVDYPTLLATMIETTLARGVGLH

## Escherichia coli DdlB (EcDdl) (Escherichia coli K-12)
C[C@@H](N)C(=O)O
  Km: 0.8 ± 0.07 mM

## N[C@@H]1CONC1=O [DCS, (R)-4-amino-1,2-oxazolidin-3-one]
[1]; read-out: Ki,DCS2
  Ki: 27 µM
[2]
  Ki: 44 ± 10 µM
Across all pHs tested over the time frame of the experiment
  stability by one-dimensional NMR: stable
In the presence and absence of enzyme (and other buffer components)
  stability by one-dimensional and 13C HSQC NMR: no spectral changes
[3]; MtDdl–ATP–D-Ala complex, previous work, read-out: Ki,DCS2
  Ki: 25 µM
[3]; previous data, read-out: Ki,DCS1
  Ki: 15 µM
[4]; MtDdl preincubated with ATP with DCS, MtDdl–ATP complex
  t1/2 (dissociative half-life): 25 s
[4]; [6]
  k2 (DCS binding rate constant): 373 ± 11 M^–1 s^–1
  koff: 0.028 ± 0.001 s⁻¹
[4]; [7]
  k2 (DCS binding rate constant): 888 ± 36 M^–1 s^–1
  koff: 0.014 ± 0.003 s⁻¹
[4]; MtDdl preincubated with ATP, MtDdl:ATP:D-Ala:DCS complex
  t1/2 (dissociative half-life): 48 s
MtDdl
  DCS–MtDdl complex residence time longer than that for the D-Ala–MtDdl complex: up to 8 orders of magnitude
[5]; EcDdl compared with MtDdl
  fold faster rate of association of the enzyme–inhibitor complex (k2), EcDdl vs MtDdl: > 3 fold
  fold faster rate of dissociation of the enzyme–inhibitor complex (k–2), EcDdl vs MtDdl: 10 fold
[5]; [8]
  k2 (DCS binding rate constant): 2970 ± 360 M^–1 s^–1
  t1/2 (dissociative half-life): 5 s
[5]; EcDdl preincubated with ATP, only 0.75 mM D-Ala tested, read-out: k–2 (DCS dissociation rate constant)
  koff: 0.13 ± 0.03 s⁻¹

## C[C@@H](N)C(=O)O [D-Ala, D-alanine]
[1]; read-out: Km,D-Ala2
  Km: 1.2 mM
[3]; read-out: Km for the C-terminal site, value used in eq 2
  Km: 4 mM
[3]; read-out: Km,D-Ala2, C-terminal site, previous work, ref Prosser and de Carvalho, 2013
  Km: 3.6 ± 0.6 mM
